Source: ChEMBL document CHEMBL5465560, “Selectivity Literature for EUbOPEN Chemogenomic Library” (2024)

Assays:
[1] = target: T1, MAP/microtubule affinity-regulating kinase 4 (Homo sapiens) (UniProt Q96L34); assay: Selectivity interaction (ActivX KiNativ screen (kinase selectivity in THP-1 cell lysates)) EUB0000639a MARK4; format: subcellular; conditions: lysate, at 0.01 µM
T1 sequence (whole entry): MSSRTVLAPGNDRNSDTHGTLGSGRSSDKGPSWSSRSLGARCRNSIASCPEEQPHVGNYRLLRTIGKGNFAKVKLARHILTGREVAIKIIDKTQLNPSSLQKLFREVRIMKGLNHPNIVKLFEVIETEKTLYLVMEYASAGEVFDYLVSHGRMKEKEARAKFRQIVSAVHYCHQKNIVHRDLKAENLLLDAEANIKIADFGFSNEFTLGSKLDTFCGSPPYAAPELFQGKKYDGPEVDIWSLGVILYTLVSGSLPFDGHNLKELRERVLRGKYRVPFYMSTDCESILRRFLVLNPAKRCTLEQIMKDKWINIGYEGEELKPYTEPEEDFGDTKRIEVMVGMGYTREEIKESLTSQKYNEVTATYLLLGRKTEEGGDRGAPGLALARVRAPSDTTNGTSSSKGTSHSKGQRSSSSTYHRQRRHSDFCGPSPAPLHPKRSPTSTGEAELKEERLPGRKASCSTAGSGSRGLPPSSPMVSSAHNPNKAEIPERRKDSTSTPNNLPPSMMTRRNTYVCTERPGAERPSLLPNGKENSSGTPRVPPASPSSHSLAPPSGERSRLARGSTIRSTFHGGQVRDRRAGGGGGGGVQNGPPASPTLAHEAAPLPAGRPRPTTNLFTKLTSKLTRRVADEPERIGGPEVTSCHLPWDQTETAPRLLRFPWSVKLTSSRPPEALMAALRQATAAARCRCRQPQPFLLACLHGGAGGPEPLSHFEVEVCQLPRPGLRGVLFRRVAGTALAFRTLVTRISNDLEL

[2] = target: Phosphatidylinositol 4-kinase beta (Homo sapiens, UniProt Q9UBF8); assay: Selectivity interaction (KinomeScan (DiscoverX)) EUB0000607a PI4KB; conditions: at 10 µM
Chain of Phosphatidylinositol 4-kinase beta (Q9UBF8 2-816 limits assumed): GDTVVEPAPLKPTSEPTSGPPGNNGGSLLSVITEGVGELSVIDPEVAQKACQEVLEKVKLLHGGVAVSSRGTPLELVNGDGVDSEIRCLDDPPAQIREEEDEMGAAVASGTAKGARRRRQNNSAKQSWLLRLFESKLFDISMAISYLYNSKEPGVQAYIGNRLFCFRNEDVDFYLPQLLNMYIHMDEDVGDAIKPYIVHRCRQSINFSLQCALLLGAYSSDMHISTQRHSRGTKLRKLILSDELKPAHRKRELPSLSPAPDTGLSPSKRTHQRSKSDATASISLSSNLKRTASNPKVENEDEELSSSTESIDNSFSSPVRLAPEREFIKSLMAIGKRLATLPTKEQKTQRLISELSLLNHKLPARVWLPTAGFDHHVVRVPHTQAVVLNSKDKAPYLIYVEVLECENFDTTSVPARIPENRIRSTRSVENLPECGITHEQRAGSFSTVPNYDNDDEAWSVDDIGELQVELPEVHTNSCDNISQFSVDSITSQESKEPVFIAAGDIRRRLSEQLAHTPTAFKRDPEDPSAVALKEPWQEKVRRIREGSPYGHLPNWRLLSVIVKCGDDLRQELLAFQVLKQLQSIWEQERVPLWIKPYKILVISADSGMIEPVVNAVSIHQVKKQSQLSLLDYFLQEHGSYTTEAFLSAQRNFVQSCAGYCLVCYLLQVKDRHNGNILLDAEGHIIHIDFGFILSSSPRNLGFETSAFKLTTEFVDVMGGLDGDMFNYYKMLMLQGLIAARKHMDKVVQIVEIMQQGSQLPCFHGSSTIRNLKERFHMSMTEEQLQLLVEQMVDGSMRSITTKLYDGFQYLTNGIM

[3] = target: T2, Myosin-IIIb (Homo sapiens) (UniProt Q8WXR4); assay: Selectivity interaction (KinomeScan (DiscoverX)) EUB0001049a MYO3B; conditions: at 1 µM
T2 sequence (whole entry): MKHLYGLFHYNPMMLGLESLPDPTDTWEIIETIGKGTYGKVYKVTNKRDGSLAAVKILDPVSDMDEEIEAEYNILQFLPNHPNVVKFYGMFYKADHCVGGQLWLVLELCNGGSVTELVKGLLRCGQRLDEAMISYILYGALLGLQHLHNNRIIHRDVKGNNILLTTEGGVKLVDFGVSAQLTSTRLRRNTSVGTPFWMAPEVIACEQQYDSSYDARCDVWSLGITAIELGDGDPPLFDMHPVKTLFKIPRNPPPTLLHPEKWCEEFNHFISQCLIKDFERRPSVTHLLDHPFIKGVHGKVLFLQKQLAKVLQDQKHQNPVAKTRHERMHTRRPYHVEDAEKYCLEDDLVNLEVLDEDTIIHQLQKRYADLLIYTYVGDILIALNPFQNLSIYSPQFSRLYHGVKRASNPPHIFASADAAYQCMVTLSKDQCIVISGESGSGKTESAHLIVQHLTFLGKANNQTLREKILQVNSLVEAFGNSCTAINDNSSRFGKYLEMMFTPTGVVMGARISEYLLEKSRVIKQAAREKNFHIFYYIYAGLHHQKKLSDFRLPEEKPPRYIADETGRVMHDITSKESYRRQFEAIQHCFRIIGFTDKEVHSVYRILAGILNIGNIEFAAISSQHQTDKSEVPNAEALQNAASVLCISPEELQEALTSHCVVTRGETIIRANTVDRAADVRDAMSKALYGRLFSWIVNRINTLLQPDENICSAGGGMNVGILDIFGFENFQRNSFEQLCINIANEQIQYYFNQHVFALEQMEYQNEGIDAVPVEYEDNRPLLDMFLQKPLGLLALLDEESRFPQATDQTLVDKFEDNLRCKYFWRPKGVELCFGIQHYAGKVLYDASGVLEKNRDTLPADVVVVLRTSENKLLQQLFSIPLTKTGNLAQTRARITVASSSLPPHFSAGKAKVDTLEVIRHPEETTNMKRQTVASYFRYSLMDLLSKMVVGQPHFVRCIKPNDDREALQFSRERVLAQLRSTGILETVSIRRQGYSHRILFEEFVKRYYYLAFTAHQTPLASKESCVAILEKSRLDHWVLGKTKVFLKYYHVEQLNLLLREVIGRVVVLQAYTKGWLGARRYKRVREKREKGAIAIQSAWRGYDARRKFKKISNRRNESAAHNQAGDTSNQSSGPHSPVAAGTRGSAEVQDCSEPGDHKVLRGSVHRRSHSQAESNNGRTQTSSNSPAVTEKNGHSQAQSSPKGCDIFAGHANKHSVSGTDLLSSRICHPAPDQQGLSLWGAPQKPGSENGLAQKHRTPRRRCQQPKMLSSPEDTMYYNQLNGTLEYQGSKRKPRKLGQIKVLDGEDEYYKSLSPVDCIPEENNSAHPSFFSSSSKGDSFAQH

[4] = target: Protein kinase C theta type (Homo sapiens, UniProt Q04759); assay: Selectivity interaction (KinomeScan (DiscoverX)) EUB0001619a PRKCQ; conditions: at 1 µM
Chain of Protein kinase C theta type (Q04759 whole entry, looked up): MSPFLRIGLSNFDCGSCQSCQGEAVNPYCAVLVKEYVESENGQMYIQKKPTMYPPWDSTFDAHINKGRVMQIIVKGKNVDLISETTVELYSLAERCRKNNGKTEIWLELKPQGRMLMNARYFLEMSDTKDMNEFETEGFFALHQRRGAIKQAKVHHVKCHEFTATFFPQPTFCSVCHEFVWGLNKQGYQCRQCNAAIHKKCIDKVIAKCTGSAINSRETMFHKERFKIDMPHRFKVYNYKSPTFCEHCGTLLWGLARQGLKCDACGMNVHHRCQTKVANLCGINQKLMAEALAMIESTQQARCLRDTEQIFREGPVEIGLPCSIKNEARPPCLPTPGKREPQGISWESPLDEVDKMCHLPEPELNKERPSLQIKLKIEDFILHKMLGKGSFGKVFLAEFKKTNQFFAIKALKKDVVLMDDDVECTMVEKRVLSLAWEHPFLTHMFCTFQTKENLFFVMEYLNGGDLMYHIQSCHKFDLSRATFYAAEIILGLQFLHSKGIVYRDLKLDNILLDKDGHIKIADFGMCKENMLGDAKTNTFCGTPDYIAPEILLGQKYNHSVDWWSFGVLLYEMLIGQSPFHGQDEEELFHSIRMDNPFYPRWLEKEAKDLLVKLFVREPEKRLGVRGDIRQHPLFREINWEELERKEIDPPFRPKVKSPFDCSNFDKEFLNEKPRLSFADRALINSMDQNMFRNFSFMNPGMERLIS

Question: `CC[C@@H]1[C@H](F)C(=O)N[C@@H]1COc1nccc2cc(C(N)=O)c(OC)cc12` [ZIMLOVISERTIB] was tested. Which % of inhibition [1] did it give?
Answer: 9.6%

Question: For `CNC(=O)Nc1ccc(-c2nc(N3CC4CCC(C3)O4)c3cnn(C4CCC5(CC4)OCCO5)c3n2)cc1`, which % of control [2] is on record?
Answer: 100%

Question: Which % of control [3] does the source give for `COc1cc(Nc2nc(C)cc(-c3cnn4nc(OC)ccc34)n2)cc(C(F)(F)F)c1` here?
Answer: 100%

Question: For `N#Cc1cccc(-c2c[nH]c3ncnc(N4CCOCC4)c23)c1`, which % of control [4] is on record?
Answer: 77%
